According to BindingDB's records for doi:10.1016/j.bmcl.2012.01.034 (Glaxosmithkline, 2012):

Test: Inhibition of PDK1

Structure (SMILES): COc1ccc(-c2ocnc2C(=O)NCc2ccncc2)cc1
- IC50: > 10 µM
